Format in all cases: biochemical
One experiment concerns the target T1, Human plasma factor Xa (Homo sapiens, UniProt P00742).
T1 construct: from tissue; host or cells: human plasma
Briefly: Ki determination, human plasma factor Xa (N-Benzoyl-Ile-Glu-Gly-Arg-pNA). To be noted: 50 mM Tris-HCl, pH 7.8, 200 mM NaCl, 0.05% BSA; read-out: Experimentally Determined Ki, Factor Xa. The method, then:
(§1) Protease inhibition was assayed according to published procedures with minor modifications using various proteases and specific chromogenic peptide p-nitroanilide substrates. Assays were performed in Costar ultra-low cluster 96-well microtiter plate (Costar Corning Corp., Cambridge Mass.). Each protease was incubated with various concentrations of the test compound for 15 min. at 37° C. or as otherwise indicated, in specific assay buffer, and the residual activity was then measured by addition of the substrate. p-Nitroaniline produced by the proteolysis was determined by measuring the change in absorbance at 405 nm on a SpectraMAX 340 plate reader (Molecular devices, Sunnyvale, Calif.).
(§2) 1. The inhibition constant, Ki is calculated from individual data points using the equation for a tight-binding inhibitor (See Beith, "Proteinase Inhibitors-Proceedings of 2nd Int. Res. Conference", Fritz, et al. eds, New York, p.4463-4469 (1974)):
(§3) vi /vo [((Ki '+[I]+[E]o)^2 -4 [I]o
(§4) [E]o)^1/2 (Ki '+[I]o -[E]o)]/2[E]o
(§5) where Ki ' is apparent inhibition constant; vi and vo are the inhibited and uninhibited rates, respectively; [I]o and [E]o are the total concentrations of inhibitor and enzyme, respectively.
(§6) [note: [E]o is determined by active site titration of enzyme]
(§7) The Ki values are obtained by correcting Ki ' values for the effect of substrate concentration according to: [formula]
(§8) 2. Other inhibition data (Ki >>[E]o), the Ki is calculated from using the equations for a competitive inhibitor: [formula]
Human plasma factor Xa activity was determined by using N-Benzoyl-Ile-Glu-Gly-Arg-pNA in 50 mM Tris-HCl, pH 7.8, 200 mM NaCl, 0.05% BSA (See Lottenberg, et al. Meth. Enzymol. 80, 341-361 (1981)).
(§9) The inhibition constant (Ki) of the test compounds against each proteolytic enzyme was determined according to Zitnik et al., Biochem. Biophys. Res. Commun. 232, 687-697 (1997)).

In another experiment the target is T2, Human plasma kallikrein (Homo sapiens, UniProt P03952).
T2 construct: from tissue; host or cells: human plasma
Put plainly: Ki determination, human plasma kallikrein (H-D-Prolyl-Phe-Arg-pNA). To be noted: 50 mM Tris-HCl, pH 7.8, 200 mM NaCl, 0.05% BSA; read-out: Experimentally Determined Ki, Plasma Kallikrein. The procedure: as §1, §2, §3, §4, §5, §6, §7, §8
(§10) I. Human Plasma and r-Tissue Kallikrein
(§11) Human plasma and r-tissue kallikrein activity were determined in 50 mM Tris-HCl, pH 7.8, 200 mM NaCl, 0.05% BSA by using H-D-Prolyl-Phe-Arg-pNA and DL-Val-Leu-Arg-pNA, respectively (See Lottenberg, et al., Meth. Enzymol. 80, 341-361 (1981)).
as §9

Experiment [1] addresses T3, Bovine Pancreatic Chymotrypsin (Bos taurus, UniProt P00766).
T3 construct: from tissue; host or cells: bovine pancreas
Put plainly: Ki determination, bovine pancreatic chymotrypsin (N-Suc-Ala-Ala-Pro-Phe-pNA). Conditions: 100 mM Tris-HCl, pH 7.8, 10 mM CaCl2; read-out: Experimentally Determined Ki, Chymotrypsin. The method, then: as §1, §2, §3, §4, §5, §6, §7, §8
Bovine Pancreatic Chymotrypsin activity was determined by using N-Suc-Ala-Ala-Pro-Phe-pNA in 100 mM Tris-HCl, pH 7.8, 10 mM CaCl2 (See Delmar, et al., J. Biochem. 85, 157-162 (1979)).
as §9

The next experiment concerns the target Human lung tryptase. Put plainly: Ki determination, human lung tryptase (Tosyl-Gly-Pro-Arg-pNA substrate). To be noted: 50 mM Tris-HCl pH 8.0, 37° C., 1 nM tryptase, 320 μM GPR-pNA; read-out: Experimentally Determined Ki, Tryptase. The procedure:
as §1, §2, §3, §4, §5, §6, §7, §8
Human lung tryptase purchased from Cortex Biochem (San Leandro, Calif.) was purified further on a Superdex 200 gel-filtration column. The active-site concentration of the enzyme was determined by spectrophotometric titration with 4-nitrophenyl 4'-guanidinobenzoate according to Schwartz, et al., J. Immunol., 114, 2304-2311 (1990). Tryptase activity was measured according to the procedures of Schwartz, et al., J. Biol. Chem., 261, 7372-7379 (1986) (See also, Schwartz, L. B., Methods In Enzymology, 244, 88 (1994)) with minor modifications, using Tosyl-Gly-Pro-Arg-p-nitroanilide ("GPR-pNA", Sigma Chemical Co., St. Louis, Mo., T-1637) as a chromogenic substrate. The reaction was performed in 50 mM Tris-HCl, pH 8.0, containing 150 mM NaCl and 0.02% Triton X-100 at 37° C. in Costar ultra-low cluster 96-well microtiter plates (Costar Corning Corp., Cambridge, Mass.). The amount of pNA produced by tryptase was determined by measuring the change in absorbance at 405 nm on a SpectraMAX 340 plate reader (Molecular devices, Sunnyvale, Calif.). The Km for the substrate was determined by Lineweaver-Burk analysis from initial velocities of substrate hydrolysis. The inhibition assay was carried out in a total volume of 200 μL. Tryptase (30 μL- final concentration 1 nM) was incubated with various concentrations of sample compound (50 μL) to be tested in the above assay buffer for 5 min. The reaction was started by the addition of substrate GPR-pNA (40 μL-final concentration 320 μM), and the residual activity was measured after 15 min. of incubation. The inhibition constant, Ki, was determined by fitting the inhibition data to a two-site competitive binding equation using data analysis program GraphPad PRISM (GraphPad Software, Inc., San Diego, Calif.).
as §9

The next experiment addresses r-tissue kallikrein (Homo sapiens, UniProt P06870). Briefly: Ki determination, r-tissue kallikrein (DL-Val-Leu-Arg-pNA). Conditions: 50 mM Tris-HCl, pH 7.8, 200 mM NaCl, 0.05% BSA; read-out: Experimentally Determined Ki, Tissue Kallikrein. The method, then: as §1, §2, §3, §4, §5, §6, §7, §8, §10, §11, §9
The target in experiment [2] is T4, Bovine pancreatic Trypsin (Bos taurus, UniProt P00760).
T4 construct: from tissue; host or cells: bovine pancreas
T4 sequence (P00760 24-246): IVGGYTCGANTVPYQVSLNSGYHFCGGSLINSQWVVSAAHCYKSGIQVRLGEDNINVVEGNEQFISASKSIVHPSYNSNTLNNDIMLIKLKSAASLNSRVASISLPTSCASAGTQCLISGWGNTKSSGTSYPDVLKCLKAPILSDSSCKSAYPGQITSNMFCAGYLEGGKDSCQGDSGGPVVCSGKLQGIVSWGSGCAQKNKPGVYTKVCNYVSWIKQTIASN
Put plainly: Ki determination, bovine pancreatic trypsin (N-a-Benzoyl-L-Arg-pNA). Conditions: 50 mM Tris-HCl, pH 8.2, 20 mM CaCl2; read-out: Experimentally Determined Ki, Trypsin. The procedure: as §1, §2, §3, §4, §5, §6, §7, §8
Bovine pancreatic Trypsin (TPCK-treated) activity was determined by using N-a-Benzoyl-L-Arg-pNA in 50 mM Tris-HCl, pH 8.2, 20 mM CaCl2 (See Somorin, et al., J. Biochem. 85, 157-162 (1979)).
as §9

A value given as a limit tells only on which side of the number the result lay.

T2 sequence (P03952 391-638 limits assumed): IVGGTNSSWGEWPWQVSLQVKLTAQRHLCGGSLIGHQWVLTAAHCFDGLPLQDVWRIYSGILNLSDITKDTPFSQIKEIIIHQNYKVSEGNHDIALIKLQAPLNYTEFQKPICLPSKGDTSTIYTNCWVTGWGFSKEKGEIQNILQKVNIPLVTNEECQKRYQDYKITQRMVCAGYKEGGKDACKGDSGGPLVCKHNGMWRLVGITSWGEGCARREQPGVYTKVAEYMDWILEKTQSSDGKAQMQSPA
T2 sequence (P03952 20-390 partner limits assumed): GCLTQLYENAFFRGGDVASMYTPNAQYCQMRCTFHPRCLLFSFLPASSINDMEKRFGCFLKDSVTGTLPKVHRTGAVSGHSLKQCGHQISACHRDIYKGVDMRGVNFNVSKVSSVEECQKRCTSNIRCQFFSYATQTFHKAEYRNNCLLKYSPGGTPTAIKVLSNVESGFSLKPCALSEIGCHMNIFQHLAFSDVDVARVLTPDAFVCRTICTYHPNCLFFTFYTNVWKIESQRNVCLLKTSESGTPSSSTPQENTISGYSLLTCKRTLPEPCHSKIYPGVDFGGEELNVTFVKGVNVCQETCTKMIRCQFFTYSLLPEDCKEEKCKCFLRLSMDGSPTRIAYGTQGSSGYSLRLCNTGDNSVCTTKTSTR
T1 sequence (P00742 235-488 limits assumed): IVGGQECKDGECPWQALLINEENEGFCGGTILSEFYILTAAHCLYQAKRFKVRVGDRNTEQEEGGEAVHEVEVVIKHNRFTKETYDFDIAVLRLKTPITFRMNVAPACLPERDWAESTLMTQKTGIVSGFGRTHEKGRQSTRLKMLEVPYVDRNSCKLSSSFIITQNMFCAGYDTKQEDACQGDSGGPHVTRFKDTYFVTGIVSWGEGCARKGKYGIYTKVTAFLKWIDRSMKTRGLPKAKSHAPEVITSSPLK
T1 sequence (P00742 41-179 partner limits assumed): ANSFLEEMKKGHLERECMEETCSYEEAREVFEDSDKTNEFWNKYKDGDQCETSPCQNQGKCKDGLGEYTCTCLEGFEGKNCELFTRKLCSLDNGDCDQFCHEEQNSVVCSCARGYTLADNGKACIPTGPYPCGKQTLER
r-tissue kallikrein, sequence (P06870 25-262): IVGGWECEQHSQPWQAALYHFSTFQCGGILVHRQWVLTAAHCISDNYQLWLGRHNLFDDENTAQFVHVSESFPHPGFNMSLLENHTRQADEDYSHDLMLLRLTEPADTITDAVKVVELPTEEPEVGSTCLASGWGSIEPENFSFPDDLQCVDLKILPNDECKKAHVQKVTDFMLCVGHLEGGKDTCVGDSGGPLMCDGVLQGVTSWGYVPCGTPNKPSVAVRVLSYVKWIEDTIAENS

For the molecule `N=C(N)c1cccc(C(=O)NCc2ccc(OCCCCCOc3ccc(CNC(=O)c4cccc(C(=N)N)c4)cc3)cc2)c1` [Example 55, 1,5-Bis-{4-[(3-carbamimidoyl-benzenecarbonylamino)-methyl]-phenoxy}-pentane], the Ki at Human plasma factor Xa was 1.8 µM; on Human plasma kallikrein, 11 µM; in experiment [1] it was > 100 µM; on Human lung tryptase it was 10 nM; at r-tissue kallikrein, > 100 µM; in experiment [2], 900 nM.

In the case of `N=C(N)c1ccc(C(=O)NCc2ccc(OCCCCCCCOc3ccc(CNC(=O)c4ccc(C(=N)N)cc4)cc3)cc2)cc1` [Example 58, 1,7-Bis-{4-[(4-carbamimidoyl-benzenecarbonylamino)-methyl]-phenoxy}-heptane], the Ki on Human plasma factor Xa is 20 µM; on Human plasma kallikrein, 46 µM; in experiment [1] it was > 100 µM; on Human lung tryptase, 1 nM; on r-tissue kallikrein it was > 100 µM; in experiment [2], 1500 nM.

Consider `N=C(N)c1cccc(C(=O)NCc2ccc(OCCCCCCCOc3ccc(CNC(=O)c4cccc(C(=N)N)c4)cc3)cc2)c1` [Example 59, 1,7-Bis-{4-[(3-carbamimidoyl-benzenecarbonylamino)-methyl]-phenoxy}-heptane], for which the Ki at Human plasma factor Xa was 8.3 µM; on Human plasma kallikrein it was 72 µM; in experiment [1], > 100 µM; at Human lung tryptase, 80 nM; on r-tissue kallikrein it was > 100 µM; in experiment [2], 1100 nM.

For `N=C(N)c1ccc(C(=O)NCc2ccc(OCCCCOc3ccc(CNC(=O)c4ccc(C(=N)N)cc4)cc3)cc2)cc1` [Example 60, 1,4-Bis-{4-[(4-carbamimidoyl-benzenecarbonylamino)-methyl]-phenoxy}-butane], the Ki on Human plasma factor Xa was 17.7 µM; at Human plasma kallikrein, 6.3 µM; in experiment [1], > 100 µM; at Human lung tryptase, 0.2 nM; at r-tissue kallikrein it was > 100 µM; in experiment [2] it was 1500 nM.

`N=C(N)c1cccc(C(=O)NCc2ccc(OCCCCOc3ccc(CNC(=O)c4cccc(C(=N)N)c4)cc3)cc2)c1` [Example 61, 1,4-Bis-{4-[(3-carbamimidoyl-benzenecarbonylamino)-methyl]-phenoxy}-butane]: the Ki was 1 µM on Human plasma factor Xa; 7.7 µM on Human plasma kallikrein; > 100 µM in experiment [1]; 10 nM on Human lung tryptase; > 100 µM on r-tissue kallikrein; 1200 nM in experiment [2].

Regarding `N=C(N)c1ccc(C(=O)NCc2ccc(OCCCOc3ccc(CNC(=O)c4ccc(C(=N)N)cc4)cc3)cc2)cc1` [Example 62, 1,3-Bis-{4-[(4-carbamimidoyl-benzoylamino)-methyl]-phenoxy}-propane], the Ki at Human plasma factor Xa was 35 µM; at Human plasma kallikrein, 2.9 µM; in experiment [1], > 100 µM; at Human lung tryptase, 0.5 nM; on r-tissue kallikrein, > 100 µM; in experiment [2], 2400 nM.

For the molecule `N=C(N)c1ccc(C(=O)NCc2ccc(OCCOc3ccc(CNC(=O)c4ccc(C(=N)N)cc4)cc3)cc2)cc1` [Example 64, 1,2-Bis-{4-[(4-carbamimidoyl-benzoylamino)-methyl]-phenoxy}-ethane], the Ki is 35.3 µM at Human plasma factor Xa; 7.3 µM at Human plasma kallikrein; > 100 µM in experiment [1]; 50 nM on Human lung tryptase; > 100 µM at r-tissue kallikrein; 1400 nM in experiment [2].

Take `N=C(N)c1cccc(C(=O)NCc2ccc(OCCOc3ccc(CNC(=O)c4cccc(C(=N)N)c4)cc3)cc2)c1` [Example 65, 1,2-Bis-{4-[(3-carbamimidoyl-benzoylamino)-methyl]-phenoxy}-ethane]: the Ki was 2.6 µM at Human plasma factor Xa; 24 µM on Human plasma kallikrein; > 100 µM in experiment [1]; 350 nM on Human lung tryptase; > 100 µM on r-tissue kallikrein; 2200 nM in experiment [2].

For `N=C(N)c1ccc(C(=O)NCc2ccc(COCc3ccc(CNC(=O)c4ccc(C(=N)N)cc4)cc3)cc2)cc1` [Example 66, 1,3-Bis-{4-[(4-carbamimidoyl-benzenecarbonylamino)-methyl]-phenyl}-2-oxapropane], the Ki was 25.7 µM on Human plasma factor Xa; 0.7 µM on Human plasma kallikrein; > 100 µM in experiment [1]; 380 nM at Human lung tryptase; > 100 µM on r-tissue kallikrein; 510 nM in experiment [2].

Turning to `CN(Cc1ccc(OCCCOc2ccc(CN(C)S(=O)(=O)c3cccc(C(=N)N)c3)cc2)cc1)S(=O)(=O)c1cccc(C(=N)N)c1` [Example 68, 1,3-Bis-{4-[(3-carbamimidoyl-benzenesulfonyl-[N-methyl]-amino)-methyl]-phenoxy}-propane], the Ki was 20 µM at Human plasma factor Xa; 4.3 µM at Human plasma kallikrein; > 100 µM in experiment [1]; 20 nM on Human lung tryptase; > 100 µM at r-tissue kallikrein; 3200 nM in experiment [2].

For the molecule `N=C(N)c1ccc(C(=O)NCc2cccc(OCCCCCOc3cccc(CNC(=O)c4ccc(C(=N)N)cc4)c3)c2)cc1` [Example 76, 1,5-Bis-{3-[(4-carbamimidoyl-benzenecarbonylamino)-methyl]-phenoxy}-pentane], the Ki is > 100 µM at Human plasma factor Xa; 2.8 µM at Human plasma kallikrein; > 100 µM in experiment [1]; 5 nM on Human lung tryptase; 5 µM on r-tissue kallikrein; 830 nM in experiment [2].

`N=C(N)c1cccc(C(=O)NCc2cccc(OCCCCCOc3cccc(CNC(=O)c4cccc(C(=N)N)c4)c3)c2)c1` [Example 77, 1,5-Bis-{3-[(3-carbamimidoyl-benzenecarbonylamino)-methyl]-phenoxy}-pentane]: the inhibition constant (Ki) at Human plasma factor Xa is 1.9 µM; on Human plasma kallikrein it was 2.9 µM; in experiment [1], > 100 µM; on Human lung tryptase, 10 nM; on r-tissue kallikrein it was 32 µM; in experiment [2], 1400 nM.
